According to patent publication US8318490B2, “Prelamin A pre peptide as a universal stem cell differentiation signal” (The Regents of the University of Colorado, a Body Corporate, priority 2006, dated 2012):
Ends that are not written are not given here.

Tests used:
[1] = tested on: ES cells; test: Peptide treatment of embryonic stem cells, staining for tubulin, pre peptide, DAPI; type: cell-based; details: 1 μg/ml, 6 hours
Text: ES cells were contacted with the prelamin A pre peptide (courtesy of Dr. Chris Hogan, University of Colorado).
FIGS. 14A-14C show a 10× control. The ES cells have round distinct nuclei and are expressing tubulin. The prelamin A signal is primarily in extracellular aggregates, though nuclear staining can also be detected.

[2] = tested on: Mouse neural stem cells; test: Peptide treatment of mouse neural stem cells, lamin A/C, tubulin, DAPI staining; type: cell-based; details: two days
Protocol: Mouse neural stem cells were treated with the prelamin A peptide for two days (FIGS. 18D-18F) and were then fixed, immunostained for lamin A/C expression (FIGS. 18A and 18D) and tubulin expression (FIGS. 18B and 18E), and stained for DNA with DAPI (FIGS. 18C and 18F). […] Tubulin expression in untreated cells is cytoplasmic and relatively diffuse, and tubulin is excluded from the cell nucleus. In peptide-treated cells a distinct filamentous tubulin staining pattern is seen initiating at the cell nucleus and extending into the cell body.

[3] = tested on: neuroblastoma; test: Peptide application to neuroblastoma cells (data not shown); type: cell-based
[4] = tested on: adult rabbit cardiac myocytes; test: Peptide treatment of adult rabbit cardiac myocytes; type: cell-based; details: differentiated cells
[5] = tested on: C2C12 myoblasts; test: Prelamin A pre peptide treatment of mitotically dividing C2C12 myoblasts, microscopy/immunostaining; type: cell-based, mouse
Protocol: (§1) Cells and transfections. C2C12 and H9C2 cells were cultured in Growth Media (GM) defined as DMEM containing 10% (vol/vol) fetal bovine serum supplemented with Lglutamine, HEPES, non-essential amino acids and antibiotics. Effectene (Qiagen) was used to transfect plasmid DNA into cells following the manufacturer's instructions. Nondifferentiating transfected cells were allowed to continue growing for an additional 24 h before being processed for microscopy, or until confluent for protein isolation.
Peptide synthesis. The farnesylated and carboxymethylated prelamin A C-terminal peptide N-LLGNSSPRTQSPQNC-C (SEQ ID NO:2) was generated by FMOC solid phase peptide synthesis, and farnesylated and carboxymethylated (Biosynthesis). The peptide was analyzed on a C4 column and by laser desorption mass spectrometry. The lyophilized peptide was resuspended in DMSO.
(§2) Microscopy. Cells were fixed in cold 70% methanol/30% acetone solution for 10 min. Immunostaining was performed with anti-human lamin A/C (Novocastra), anti-prelamin A (Santa Cruz), or anti-desmin (Sigma) primary antibodies followed by the appropriate fluorescently labeled secondary antibody and mounting in anti-fade media containing DAPI (Vector Laboratories). Images were captured on an Olympus IX81 inverted microscope with Olympus objectives (U PLAN APO 10× oil N.A. 0.40, UAPO 40× oil N.A. 1.35, TIRFM PLAN APO 60× oil N.A. 1.45 WD 0.15 mm) and a Hamamatsu ORCA IIER monochromatic CCD camera and Intelligent Imaging Slidebook software. Images were also acquired on an Olympus IX70 Infinity inverted microscope with Olympus objectives (100× U PLAN APO, N.A. 1.35, W.D. 0.1 mm, oil; 20× U PLAN Fluorite, N.A. 0.5) with a Photometrics Quantix cooled CCD camera using Deltavision software. Signal strengths for the individual channels were adjusted using Adobe Photoshop strictly for improving the overall signal to noise ratio.
The farnesylated and carboxymethylated prelamin A pre peptide was chemically synthesized, and mitotically dividing C2C12 myoblasts were treated with the peptide at 1, 10 and 25 μg/ml in complete growth media containing 10% FBS.

[6] = tested on: neonatal rat cardiac myocytes (NRMCs); test: Peptide treatment of neonatal rat cardiac myocytes (NRMCs); type: cell-based
Text: Consequently, the prelamin A pre peptide not only determines tissue organization amongst the same type of cells, but also intracellular organization between different cell and tissue types.

[7] = tested on: Mouse F9 embryonic carcinoma cells; test: Peptide treatment of F9 embryonic carcinoma cells, lamin A/C, keratin 8, DAPI staining; type: cell-based; details: two days
Protocol: Mouse F9 embryonic carcinoma cells were treated with the prelamin A peptide for two days (FIGS. 19D-19F) and then were fixed, immunostained for lamin A/C expression (FIGS. 19A and 19D) and keratin 8 expression (FIGS. 19B and 19E), and stained for DNA with DAPI (FIGS. 19C and 19F). Keratin 8 and lamin A/C co-localize in all cells. […] Both keratin 8 and lamin A/C display distinct perinuclear filamentous staining, with greater expression towards the center of cell colonies than the periphery, in untreated F9 cells. […] The treated cells display a DNA morphology consistent with expansion of DNA into […]. Furthermore, cells at the edges of the treated colonies display altered cell morphology and are extending away from the colony, and intercellular spacing in the treated cell colonies has clearly been expanded.

[8] = tested on: fibroblasts; test: Peptide exposure of homogeneous fibroblast cultures; type: cell-based
[9] = tested on: H9c2 cells; test: Western blots of peptide-treated H9c2 cells; type: cell-based, rat; details: Western blot
Protocol: Western blots. Cells were lysed in cell buffer (1% Triton X-100, 20 mM Tris-Cl, 7.5, 10 mM NaCl, 5 mM MgC2) containing 46 μg/ml leupeptin, 10 μg/ml aprotinin, and 250 μg/ml AE-BSF for 10 min on ice. Total protein concentration was determined using BioRad Protein Assay reagent and equal amounts of total protein were loaded in each lane. Western blots were probed with anti-lamin A/C (Novocastra, Santa Cruz), antiprelamin A (Santa Cruz) and anti-myogenin (Santa Cruz) primary antibodies and HRP-conjugated secondary antibodies (Santa Cruz, Pierce). Secondary antibody detection was performed using Super signal HRP (Pierce).
Higher order intra- and intercellular organization is clearly evident in visible striations in the desmin staining pattern. […] As in serum starvation induced differentiation of H9c2 myoblasts (26), an increase in the myogenic transcription factor myogenin is seen upon peptide treatment (FIG. 5F).

[10] = tested on: H9c2 rat cardiac myoblasts; test: Prelamin A pre peptide treatment of H9c2 cardiac myoblasts, desmin immunostaining; type: cell-based
Protocol: as §1, §2
These cells were previously considered to be of cardiac lineage in part because they express heart-specific L-type calcium channels after prolonged exposure to retinoic acid during serum starvation induced differentiation (24). However, differentiation of H9c2 cells in culture has previously led to fusion and multinucleate myotube formation more resembling skeletal myotubes than cardiac myocytes.
Higher order intra- and intercellular organization is clearly evident in visible striations in the desmin staining pattern. […]

[11] = tested on: NIH3T3-L1 preadipocytes; test: Chicken prelamin A peptide treatment of preadipocytes, oil red O staining; type: cell-based; details: 72 hours
Text: Based on the change in morphology and the oil red 0 staining, the chicken peptide induces the differentiation of NIH3T3-L1 cells into adipocytes.

[12] = tested on: C2C12 cells; test: Chicken prelamin A peptide treatment of proliferating C2C12 cells, desmin immunostaining; type: cell-based, mouse; details: 40 ug/ml
Protocol: The chicken homologue of the human prelamin A peptide (SEQ ID NO: 17) was chemically synthesized and farnesylated and carboxymethylated. The lyophilized peptide was dissolved at 10 mg/ml in 50% DMSO/50% water. Actively proliferating C2C12 cells were treated with the chicken prelamin A peptide at 40 ug/ml on plastic chamber slides in complete DMEM media containing 10% fetal bovine serum (FBS). After 20 hours the cells were fixed in methanol/acetone and then immunostained with a rabbit anti-desmin primary antibody and a Texas Red conjugated anti-rabbit secondary antibody. Cover slips were mounted with media containing DAPI.

## N-LLGNSSPRTQSPQNC-C (not fully specified (residue 15); also: farnesylated, carboxymethylated; listed as Homo sapiens) [prelamin A pre peptide, farnesylated and carboxymethylated prelamin A C-terminal peptide (human, 15 amino acids), made by FMOC solid phase peptide synthesis]
[1]
  DNA morphology: changed drastically
  secretion of pre peptide: extensive secretion of the pre peptide
  tubulin expression: no longer any tubulin expression
[2]
  cell appearance: taken on the appearance of nerve cells, including glial cells
  cell morphology and tubulin expression: induced changes in cell morphology and tubulin expression
  cell proliferation: inhibited cell proliferation
[3]
  effect on neuroblastoma cells: arrest and aggregation
[4]
  cytoskeletal effect: cytoskeletal rearrangements were induced and there was a dissolution of the actin cytoskeleton
[5]; 1 μg/ml, six hours, complete growth media containing 10% FBS
  cell morphogenesis: cells have undergone morphogenesis into a bipolar configuration
[5]; 1 μg/ml, six hours, growth media 10% FBS
  desmin localization: desmin can be seen localizing to the interface with the nuclear lamina and forming a filamentous skeleton at the locations where cells interact
[5]; 6 hours after peptide exposure
  desmin expression: desmin expression is either upregulated or redistributed
  prelamin A matrix formation: prelamin A forms intra- and intercellular matrices
[5]; 6 hours of peptide treatment
  cell fusion: cell fusion can be seen
[5]; 72 hours, depending on cell density
  cell fusion / tissue formation: the cells have fused to form either sheets or myotubes
[5]; absence of conventional differentiation factors or cell confluence
  time to induction of differentiation after contact with the peptide: within minutes
[5]; closely spaced myoblasts
  fusion of closely spaced myoblasts and cell death: induces fusion of closely spaced myoblasts into a syncicium which eventually results in cell death
[5]; higher concentrations of the peptide
  effect of higher peptide concentrations: cell fusion and myotube formations
[5]; in vitro
  concentrations inducing myoblast differentiation: micromolar and even nanomolar concentrations
[5]; low concentrations of the peptide
  ECM excretion: excrete ECM
[5]; peptide at 1, 10 and 25 μg/ml
  effect on cell proliferation: dose-dependant effect on cell proliferation
  polarization of nuclei: induces the kidney-shaped polarization of nuclei
[5]; topical exposure, lower peptide concentrations
  effect of lower peptide concentrations: differentiation and morphogenesis representing a number of different cell types, and to intercellular interactions and tissue formation
[6]; 10 ug/ml, six hours
  cell fusion: a number of cells can be seen to have fused
  cell morphology: show an elongated morphology
[6]; 25 ug/ml, 18 hours
  morphogenesis and fusion: more extensive myocytes morphogenesis and fusion is observed
[6]; 72 hours of exposure
  fusion into myosheets: fused into beating myosheets
[6]; fibroblasts adjacent to NRMCs, tubulin and actin staining
  effect on fibroblasts and interaction between cell types: induces the differentiation of fibroblasts and fusion/cross-talk between different cell types
[7]
  cell and DNA morphology, intercellular organization, lamin A/C and keratin 8 expression: induces changes in cell morphology, DNA morphology, intercellular organization, and lamin A/C and keratin 8 expression
  cell proliferation: severely inhibits cell proliferation
[8]
  structural effect on fibroblasts: underwent structural reorganization
[9]
  lamin A/C expression: modest increases
  myogenin expression: increase
  prelamin A expression: modest increases
[10]; after 48 hours
  tissue formation: formed a tissue sheet of mono- and binucleated cells interconnected by an extensive ECM
[10]; cardiac myoblasts contacted with peptide
  time to extracellular matrix formation: ≤ 5 min
[10]; within six hours, growth media containing 10% FBS
  extracellular matrix secretion: secrete an extensive desmin extracellular matrix (ECM)

## VLGGAGPRRQAPAPQGC (listed as Gallus gallus) [chicken prelamin A peptide, chicken homologue of the human prelamin A peptide, chemically synthesized]
[11]
  differentiation: differentiated into adipocytes
  oil red O staining: stained positively with oil red 0
[12]; 20 hours, desmin staining
  cytoskeleton: cytoskeleton formation
[12]; within 20 hours, DMEM 10% FBS
  cell cycle: induced cell cycle arrest
  morphogenesis and fusion: myoblast morphogenesis and fusion
